Data taken from ChEMBL document CHEMBL2429832, “N-substituted 8-aminopentacyclo[5.4.0.0(2,6).0(3,10).0(5,9)]undecanes as σ receptor ligands with potential neuroprotective effects” (Bioorg Med Chem, 2013).

Experiments:
[1] = molecular target: Histamine H4 receptor (Homo sapiens, UniProt Q9H3N8); test: Inhibition of histamine H4 receptor (unknown origin) at 10 uM by PDSP assay relative to control
[2] = test system: PC-12; test: Selectivity ratio of Ki for sigma-1 receptor in rat brain homogenates to Ki for sigma-2 receptor in rat PC12 cells; type: cell-based
[3] = molecular target: T1, Alpha-1D adrenergic receptor (Homo sapiens) (UniProt P25100); test: Inhibition of adrenergic alpha1D receptor (unknown origin) at 10 uM by PDSP assay relative to control
T1 sequence (whole entry): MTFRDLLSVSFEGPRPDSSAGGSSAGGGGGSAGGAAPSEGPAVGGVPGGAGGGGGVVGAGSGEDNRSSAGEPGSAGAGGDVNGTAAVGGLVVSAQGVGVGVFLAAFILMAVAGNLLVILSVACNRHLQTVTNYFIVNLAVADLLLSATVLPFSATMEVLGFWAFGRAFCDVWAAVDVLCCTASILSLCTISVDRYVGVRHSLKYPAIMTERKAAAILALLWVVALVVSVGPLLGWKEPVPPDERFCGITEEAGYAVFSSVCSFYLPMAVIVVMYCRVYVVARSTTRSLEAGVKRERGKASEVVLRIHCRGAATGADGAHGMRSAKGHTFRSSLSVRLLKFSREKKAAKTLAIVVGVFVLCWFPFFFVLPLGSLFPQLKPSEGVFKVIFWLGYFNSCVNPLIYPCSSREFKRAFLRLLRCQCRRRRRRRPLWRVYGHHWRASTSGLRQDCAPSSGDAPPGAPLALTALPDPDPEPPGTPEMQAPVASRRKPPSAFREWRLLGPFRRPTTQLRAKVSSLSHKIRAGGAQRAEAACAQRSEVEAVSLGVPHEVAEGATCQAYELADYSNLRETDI

[4] = molecular target: Mu-type opioid receptor (Homo sapiens, UniProt P35372); test: Inhibition of mu opioid receptor (unknown origin) at 10 uM by PDSP assay relative to control
[5] = molecular target: Sodium-dependent noradrenaline transporter (Homo sapiens, UniProt P23975); test: Displacement of [3H]-nisoxetine from human NET expressed in HEK cell membranes at 10 uM relative to control; details: HEK293
Sequence of Sodium-dependent noradrenaline transporter (P23975 whole entry): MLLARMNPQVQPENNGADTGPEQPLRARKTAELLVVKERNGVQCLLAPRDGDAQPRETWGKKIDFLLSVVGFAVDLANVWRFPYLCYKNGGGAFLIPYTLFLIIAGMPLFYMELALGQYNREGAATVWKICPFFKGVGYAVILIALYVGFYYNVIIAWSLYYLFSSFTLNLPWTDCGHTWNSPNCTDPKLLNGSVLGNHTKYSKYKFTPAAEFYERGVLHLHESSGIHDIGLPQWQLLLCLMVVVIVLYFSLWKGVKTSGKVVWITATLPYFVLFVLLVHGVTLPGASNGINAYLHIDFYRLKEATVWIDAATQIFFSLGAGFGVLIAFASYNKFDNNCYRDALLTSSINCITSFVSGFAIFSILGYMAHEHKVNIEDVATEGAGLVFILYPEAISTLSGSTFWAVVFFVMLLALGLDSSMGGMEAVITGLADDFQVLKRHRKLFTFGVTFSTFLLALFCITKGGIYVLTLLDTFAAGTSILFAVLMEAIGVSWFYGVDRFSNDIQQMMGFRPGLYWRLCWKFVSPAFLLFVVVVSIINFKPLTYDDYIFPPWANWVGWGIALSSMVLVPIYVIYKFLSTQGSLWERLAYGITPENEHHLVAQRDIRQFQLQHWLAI

[6] = molecular target: Delta-type opioid receptor (Homo sapiens, UniProt P41143); test: Inhibition of delta opioid receptor (unknown origin) at 10 uM by PDSP assay relative to control
Sequence of Delta-type opioid receptor (P41143 whole entry): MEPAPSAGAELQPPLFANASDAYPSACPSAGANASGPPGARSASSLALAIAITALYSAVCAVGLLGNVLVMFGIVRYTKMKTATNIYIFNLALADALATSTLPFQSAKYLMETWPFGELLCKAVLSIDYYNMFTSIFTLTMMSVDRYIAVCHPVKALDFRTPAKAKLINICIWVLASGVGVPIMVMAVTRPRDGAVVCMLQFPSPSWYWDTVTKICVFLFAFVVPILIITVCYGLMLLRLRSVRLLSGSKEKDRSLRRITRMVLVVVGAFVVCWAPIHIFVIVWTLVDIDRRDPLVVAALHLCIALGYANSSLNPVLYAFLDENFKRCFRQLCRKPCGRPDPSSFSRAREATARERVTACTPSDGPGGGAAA

[7] = molecular target: Histamine H3 receptor (Homo sapiens, UniProt Q9Y5N1); test: Inhibition of histamine H3 receptor (unknown origin) at 10 uM by PDSP assay relative to control
Sequence of Histamine H3 receptor (Q9Y5N1 whole entry): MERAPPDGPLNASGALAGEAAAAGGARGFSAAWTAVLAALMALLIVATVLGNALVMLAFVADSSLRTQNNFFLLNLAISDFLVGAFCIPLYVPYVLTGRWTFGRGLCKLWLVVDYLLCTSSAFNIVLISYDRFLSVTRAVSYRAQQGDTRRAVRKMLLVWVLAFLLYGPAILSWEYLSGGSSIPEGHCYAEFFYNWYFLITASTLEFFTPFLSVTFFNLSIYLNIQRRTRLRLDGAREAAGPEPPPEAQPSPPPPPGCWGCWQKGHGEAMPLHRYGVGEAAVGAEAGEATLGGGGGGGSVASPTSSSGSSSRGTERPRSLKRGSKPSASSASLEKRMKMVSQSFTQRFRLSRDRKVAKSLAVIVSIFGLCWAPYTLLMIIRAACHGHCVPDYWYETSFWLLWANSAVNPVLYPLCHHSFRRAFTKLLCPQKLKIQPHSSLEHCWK

[8] = molecular target: Sigma non-opioid intracellular receptor 1 (Rattus norvegicus, UniProt Q9R0C9); test: Displacement of [3H](+)-pentazocine from sigma-1 receptor in rat brain homogenates; type: tissue-based
Sequence of Sigma non-opioid intracellular receptor 1 (Q9R0C9 whole entry): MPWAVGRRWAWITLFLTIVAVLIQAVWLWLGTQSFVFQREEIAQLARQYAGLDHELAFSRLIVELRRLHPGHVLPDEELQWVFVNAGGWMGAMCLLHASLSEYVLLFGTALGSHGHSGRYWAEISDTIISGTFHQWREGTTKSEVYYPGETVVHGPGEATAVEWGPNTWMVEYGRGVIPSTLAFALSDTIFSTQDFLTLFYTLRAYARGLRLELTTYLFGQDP

[9] = molecular target: 5-hydroxytryptamine receptor 1E (Homo sapiens) (UniProt P28566); test: Inhibition of 5-HT1E receptor (unknown origin) at 10 uM by PDSP assay relative to control
Sequence of 5-hydroxytryptamine receptor 1E (Homo sapiens) (P28566 whole entry): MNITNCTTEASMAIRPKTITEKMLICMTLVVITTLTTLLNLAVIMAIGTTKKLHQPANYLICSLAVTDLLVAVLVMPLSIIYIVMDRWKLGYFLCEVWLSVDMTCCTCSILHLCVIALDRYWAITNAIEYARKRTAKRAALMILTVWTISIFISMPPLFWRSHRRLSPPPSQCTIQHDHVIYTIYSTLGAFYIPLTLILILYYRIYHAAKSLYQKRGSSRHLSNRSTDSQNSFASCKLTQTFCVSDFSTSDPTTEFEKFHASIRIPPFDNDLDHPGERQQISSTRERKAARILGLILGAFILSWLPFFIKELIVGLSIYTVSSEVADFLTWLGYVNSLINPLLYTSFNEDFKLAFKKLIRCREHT

[10] = molecular target: 5-hydroxytryptamine receptor 1D (Homo sapiens) (UniProt P28221); test: Inhibition of 5-HT1D receptor (unknown origin) at 10 uM by PDSP assay relative to control
Sequence of 5-hydroxytryptamine receptor 1D (Homo sapiens) (P28221 whole entry): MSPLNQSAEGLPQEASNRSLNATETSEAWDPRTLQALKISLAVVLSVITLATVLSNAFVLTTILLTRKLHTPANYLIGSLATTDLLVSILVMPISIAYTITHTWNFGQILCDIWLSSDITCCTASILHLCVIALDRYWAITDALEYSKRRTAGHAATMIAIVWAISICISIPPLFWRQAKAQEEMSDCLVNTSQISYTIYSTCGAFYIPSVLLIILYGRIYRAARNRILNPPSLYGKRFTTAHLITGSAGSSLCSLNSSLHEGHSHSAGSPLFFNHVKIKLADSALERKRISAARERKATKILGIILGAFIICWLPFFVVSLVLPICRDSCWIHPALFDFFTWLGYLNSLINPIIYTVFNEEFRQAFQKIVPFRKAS

[11] = molecular target: Beta-3 adrenergic receptor (Homo sapiens) (UniProt P13945); test: Inhibition of adrenergic beta3 receptor (unknown origin) at 10 uM by PDSP assay relative to control
Sequence of Beta-3 adrenergic receptor (Homo sapiens) (P13945 whole entry, looked up): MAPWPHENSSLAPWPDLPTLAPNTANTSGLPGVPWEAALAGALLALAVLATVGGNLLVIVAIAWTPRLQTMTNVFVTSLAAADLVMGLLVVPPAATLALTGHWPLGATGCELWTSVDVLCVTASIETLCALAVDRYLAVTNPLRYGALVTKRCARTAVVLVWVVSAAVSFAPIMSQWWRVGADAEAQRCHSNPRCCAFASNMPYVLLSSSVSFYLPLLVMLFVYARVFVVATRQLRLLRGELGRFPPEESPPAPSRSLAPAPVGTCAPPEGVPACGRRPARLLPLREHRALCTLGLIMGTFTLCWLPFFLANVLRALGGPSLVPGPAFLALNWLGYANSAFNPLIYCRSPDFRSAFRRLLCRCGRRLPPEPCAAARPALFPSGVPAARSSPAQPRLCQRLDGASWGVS

[12] = molecular target: 5-hydroxytryptamine receptor 1B (Homo sapiens, UniProt P28222); test: Inhibition of 5-HT1B receptor (unknown origin) at 10 uM by PDSP assay relative to control
Sequence of 5-hydroxytryptamine receptor 1B (P28222 whole entry): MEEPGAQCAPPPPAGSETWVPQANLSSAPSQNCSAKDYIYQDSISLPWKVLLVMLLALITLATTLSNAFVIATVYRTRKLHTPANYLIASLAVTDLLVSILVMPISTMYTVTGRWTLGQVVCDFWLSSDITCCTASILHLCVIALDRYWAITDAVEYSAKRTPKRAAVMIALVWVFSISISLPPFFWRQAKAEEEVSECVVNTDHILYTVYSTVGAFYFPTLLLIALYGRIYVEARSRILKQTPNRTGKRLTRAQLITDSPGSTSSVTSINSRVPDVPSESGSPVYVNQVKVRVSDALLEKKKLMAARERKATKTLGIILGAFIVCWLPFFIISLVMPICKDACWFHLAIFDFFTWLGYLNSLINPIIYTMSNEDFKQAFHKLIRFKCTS

[13] = molecular target: T2, 5-hydroxytryptamine receptor 3A (Homo sapiens) (UniProt P46098); test: Inhibition of 5-HT3 receptor (unknown origin) at 10 uM by PDSP assay relative to control
T2 sequence (whole entry): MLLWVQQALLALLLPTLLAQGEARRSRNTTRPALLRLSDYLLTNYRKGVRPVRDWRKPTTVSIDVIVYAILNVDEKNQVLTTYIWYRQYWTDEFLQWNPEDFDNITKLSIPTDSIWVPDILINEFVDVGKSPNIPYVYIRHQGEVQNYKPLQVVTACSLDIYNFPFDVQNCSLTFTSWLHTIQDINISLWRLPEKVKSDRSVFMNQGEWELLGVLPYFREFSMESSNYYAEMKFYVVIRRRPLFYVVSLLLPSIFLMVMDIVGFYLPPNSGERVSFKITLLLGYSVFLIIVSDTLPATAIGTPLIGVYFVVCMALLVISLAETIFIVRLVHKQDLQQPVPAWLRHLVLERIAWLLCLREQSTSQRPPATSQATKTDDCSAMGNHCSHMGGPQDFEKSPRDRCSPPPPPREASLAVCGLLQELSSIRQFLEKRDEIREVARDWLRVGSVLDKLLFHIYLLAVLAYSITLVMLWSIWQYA

[14] = molecular target: Beta-1 adrenergic receptor (Homo sapiens) (UniProt P08588); test: Inhibition of adrenergic beta1 receptor (unknown origin) at 10 uM by PDSP assay relative to control
Sequence of Beta-1 adrenergic receptor (Homo sapiens) (P08588 whole entry, looked up): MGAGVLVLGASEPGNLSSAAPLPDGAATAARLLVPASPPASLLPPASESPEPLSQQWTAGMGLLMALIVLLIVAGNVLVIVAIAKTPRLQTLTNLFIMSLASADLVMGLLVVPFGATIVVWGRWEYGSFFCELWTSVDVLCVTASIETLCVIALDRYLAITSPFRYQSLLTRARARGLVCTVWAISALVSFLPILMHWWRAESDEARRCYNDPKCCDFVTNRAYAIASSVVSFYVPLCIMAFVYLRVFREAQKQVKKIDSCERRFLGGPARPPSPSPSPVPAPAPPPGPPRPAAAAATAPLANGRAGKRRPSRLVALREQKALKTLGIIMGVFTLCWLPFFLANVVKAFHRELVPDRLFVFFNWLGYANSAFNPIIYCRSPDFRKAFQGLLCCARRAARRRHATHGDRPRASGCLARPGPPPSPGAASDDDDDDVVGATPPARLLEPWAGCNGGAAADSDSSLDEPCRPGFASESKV

[15] = molecular target: T3, D(4) dopamine receptor (Homo sapiens) (UniProt P21917); test: Inhibition of dopamine D4 receptor (unknown origin) at 10 uM by PDSP assay relative to control
T3 sequence (whole entry): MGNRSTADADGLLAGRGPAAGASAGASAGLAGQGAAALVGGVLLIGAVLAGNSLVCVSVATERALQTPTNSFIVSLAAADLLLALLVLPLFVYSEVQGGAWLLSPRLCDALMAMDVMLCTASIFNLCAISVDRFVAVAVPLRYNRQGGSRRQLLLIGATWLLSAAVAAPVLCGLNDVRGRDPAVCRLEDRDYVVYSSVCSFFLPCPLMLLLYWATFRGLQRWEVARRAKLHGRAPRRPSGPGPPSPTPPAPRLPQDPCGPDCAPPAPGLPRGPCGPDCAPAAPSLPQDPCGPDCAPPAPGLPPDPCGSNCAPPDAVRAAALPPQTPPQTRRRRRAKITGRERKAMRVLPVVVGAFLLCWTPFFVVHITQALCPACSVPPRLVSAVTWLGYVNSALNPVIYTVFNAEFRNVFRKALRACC

[16] = molecular target: D(1A) dopamine receptor (Homo sapiens) (UniProt P21728); test: Inhibition of dopamine D1 receptor (unknown origin) at 10 uM by PDSP assay relative to control
Sequence of D(1A) dopamine receptor (Homo sapiens) (P21728 whole entry): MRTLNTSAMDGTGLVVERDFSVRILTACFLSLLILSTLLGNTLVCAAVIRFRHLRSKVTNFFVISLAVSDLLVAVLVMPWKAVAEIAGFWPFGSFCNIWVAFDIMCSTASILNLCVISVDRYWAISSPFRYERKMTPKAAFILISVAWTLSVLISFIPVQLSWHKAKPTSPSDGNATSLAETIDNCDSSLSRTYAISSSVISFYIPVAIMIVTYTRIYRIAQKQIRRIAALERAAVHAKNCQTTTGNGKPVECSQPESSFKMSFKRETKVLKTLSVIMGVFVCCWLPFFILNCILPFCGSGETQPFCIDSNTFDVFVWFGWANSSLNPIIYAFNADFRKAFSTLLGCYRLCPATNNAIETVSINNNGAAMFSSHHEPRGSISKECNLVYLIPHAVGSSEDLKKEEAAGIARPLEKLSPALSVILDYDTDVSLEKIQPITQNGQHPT

[17] = Displacement of [3H]-DTG from sigma-2 receptor in rat PC12 cells; type: cell-based; details: pc-12
[18] = molecular target: 5-hydroxytryptamine receptor 2B (Homo sapiens, UniProt P41595); test: Inhibition of 5-HT2B receptor (unknown origin) at 10 uM by PDSP assay relative to control
[19] = molecular target: 5-hydroxytryptamine receptor 7 (Homo sapiens, UniProt P34969); test: Inhibition of 5-HT7 receptor (unknown origin) at 10 uM by PDSP assay relative to control
Sequence of 5-hydroxytryptamine receptor 7 (P34969 whole entry): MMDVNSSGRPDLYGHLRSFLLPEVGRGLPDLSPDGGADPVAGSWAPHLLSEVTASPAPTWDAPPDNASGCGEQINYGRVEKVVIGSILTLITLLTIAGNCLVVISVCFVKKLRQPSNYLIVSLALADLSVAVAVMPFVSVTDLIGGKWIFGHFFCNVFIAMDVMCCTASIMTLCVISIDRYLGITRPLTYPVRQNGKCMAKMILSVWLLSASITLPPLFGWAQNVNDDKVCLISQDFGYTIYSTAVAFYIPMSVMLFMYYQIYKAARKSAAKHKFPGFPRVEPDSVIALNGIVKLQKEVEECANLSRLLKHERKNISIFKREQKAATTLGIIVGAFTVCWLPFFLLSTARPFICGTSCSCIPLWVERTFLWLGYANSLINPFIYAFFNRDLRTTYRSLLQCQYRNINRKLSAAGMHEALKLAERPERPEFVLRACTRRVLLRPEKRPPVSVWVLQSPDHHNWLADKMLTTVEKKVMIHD

Row | SMILES | inhibition [1] [%] | inhibition [3] [%] | inhibition [4] [%] | inhibition [5] [%] | inhibition [6] [%] | inhibition [7] [%] | Ki [8] [nM] | inhibition [9] [%] | inhibition [10] [%] | inhibition [11] [%] | inhibition [12] [%] | inhibition [13] [%] | inhibition [14] [%] | inhibition [15] [%] | inhibition [16] [%] | inhibition [18] [%] | inhibition [19] [%] | Ratio Ki [2] | Ki [17] [nM]
1 | CN(CCc1ccccc1)[C@H]1C2C3CC4C5C3CC2C5C41 (some centres undefined) | < 50 | < 50 | < 50 | < 50 | < 50 | < 50 | 773 | < 50 | < 50 | < 50 | < 50 | < 50 | < 50 | < 50 | < 50 |  |  | 48.3 | 16
2 | CN(CCCc1cccc(F)c1)[C@H]1C2C3CC4C2C(=O)C2C4C3C21 (some centres undefined) | < 50 | < 50 | < 50 |  | < 50 |  | 133 | < 50 | < 50 | < 50 | < 50 | < 50 | < 50 | < 50 | < 50 | < 50 | < 50 | 4.4 | 30
3 | CN(CCc1ccccn1)[C@H]1C2C3CC4C5C3CC2C5C41 (some centres undefined) | < 50 | < 50 |  | < 50 |  | < 50 | 448 | < 50 | < 50 | < 50 | < 50 | < 50 | < 50 | < 50 | < 50 | < 50 | < 50 | 14 | 32

More lines, main results first:

Row | inhibition [1] [%] | inhibition [3] [%] | inhibition [4] [%] | inhibition [5] [%] | inhibition [6] [%] | inhibition [7] [%] | Ki [8] [nM] | inhibition [9] [%] | inhibition [10] [%] | inhibition [11] [%] | inhibition [12] [%] | inhibition [13] [%] | inhibition [14] [%] | inhibition [15] [%] | inhibition [16] [%] | inhibition [18] [%] | inhibition [19] [%] | SMILES | Ratio Ki [2] | Ki [17] [nM]
4 |  | < 50 | < 50 | < 50 | < 50 | < 50 | 21.5 | < 50 | < 50 | < 50 | < 50 | < 50 | < 50 |  | < 50 | < 50 | < 50 | c1ccc(CCN[C@H]2C3C4CC5C6C4CC3C6C52)nc1 (some centres undefined) | 2.5 | 8.6
5 | < 50 | < 50 | < 50 | < 50 | < 50 | < 50 | 1010 | < 50 | < 50 | < 50 | < 50 | < 50 | < 50 | < 50 | < 50 |  | < 50 | COc1cc(CN[C@H]2C3C4CC5C6C4CC3C6C52)cc(OC)c1OC (some centres undefined) | 1.6 | 627
6 | < 50 | < 50 | < 50 |  | < 50 | < 50 | 17 | < 50 | < 50 | < 50 | < 50 | < 50 | < 50 | < 50 | < 50 | < 50 | < 50 | c1cc2c(cc1CN[C@H]1C3C4CC5C6C4CC3C6C51)OCO2 (some centres undefined) | 1.1 | 15
